Earlier results as cited in US20240180903A1, “INJECTABLE PHARMACEUTICAL COMPOSITION, PREPARATION METHOD THEREFOR AND USE THEREOF” (ZHEJIANG CUIZE PHARMACEUTICAL TECHNOLOGY CO., LTD., priority 2022, published 2024).

Key:
HIV = conditions: read-out: IC50 against HIV
HIV RNA in plasma = conditions: oral 5 mg/d or 30 mg/d, 10 d after a single dose

IC50 (HIV): 0.22 nM
SMILES: C[C@H]1CO[C@@H]2Cn3cc(C(=O)NCc4ccc(F)cc4F)c(=O)c(O)c3C(=O)N12 [Cabotegravir]
HIV RNA in plasma (HIV RNA in plasma): 2.2-2.3 copies/mL
